Assay results: PubChem BioAssay AID328 (DTP/NCI, 2004)
Where “and” joins values, the source holds several entries; their conditions need not be identical. Identical values can stand only once. Toxic doses and inconclusive results are not listed.

Tested on: BDF1 mice, P388 leukemia ip, median survival T/C
Test: NCI In Vivo Anticancer Drug Screen. Data for tumor model P388 Leukemia (intraperitoneal) in B6D2F1 (BDF1) mice
Details: endpoint: median survival time, higher = longer survival
How it was run: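 Survival ratio, drug arm over vehicle arm, in mice with a transplanted tumour.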

SMILES: Nc1nc(N)c2cc(NCc3ccccc3Cl)ccc2n1
- T/C (dose: 2.34 mg/kg/injection, schedule: Q04DX003 (ip), vehicle: Klucel (hydroxypropylcellulose) (HPC)): 104 % of control
- T/C (dose: 4.68 mg/kg/injection, schedule: Q04DX003 (ip), vehicle: Klucel (hydroxypropylcellulose) (HPC)): 100 % of control
- T/C (dose: 6.25 mg/kg/injection, schedule: Q01DX009 (ip), vehicle: Klucel (hydroxypropylcellulose) (HPC)): 105 % of control
- T/C (dose: 9.37 mg/kg/injection, schedule: Q04DX003 (ip), vehicle: Klucel (hydroxypropylcellulose) (HPC)): 122 % of control
- T/C (dose: 12.5 mg/kg/injection, schedule: Q01DX009 (ip), vehicle: Klucel (hydroxypropylcellulose) (HPC)): 110 % of control
- T/C (dose: 18.75 mg/kg/injection, schedule: Q04DX003 (ip), vehicle: Klucel (hydroxypropylcellulose) (HPC)): 100 % of control
- T/C (dose: 25.0 mg/kg/injection, schedule: Q01DX009 (ip), vehicle: Klucel (hydroxypropylcellulose) (HPC)): 100 % of control

SMILES: COc1ccc(C(=O)c2cccs2)cc1
- T/C (dose: 100.0 mg/kg/injection, schedule: Q04DX003 (ip), vehicle: saline with Tween-80): 100 % of control
- T/C (dose: 200.0 mg/kg/injection, schedule: Q04DX003 (ip), vehicle: saline with Tween-80): 100 % of control
- T/C (dose: 400.0 mg/kg/injection, schedule: Q04DX003 (ip), vehicle: saline with Tween-80): 86 % of control

SMILES: O=C(CC(=O)C(F)(F)F)c1csc2ccccc12
- T/C (dose: 12.5 mg/kg/injection, schedule: Q01DX009 (ip), vehicle: saline with Tween-80): 100 % of control
- T/C (dose: 25.0 mg/kg/injection, schedule: Q01DX009 (ip), vehicle: gum acacia): 112 % of control
- T/C (dose: 25.0 mg/kg/injection, schedule: Q01DX009 (ip), vehicle: saline with Tween-80): 112 % of control
- T/C (dose: 25.0 mg/kg/injection, schedule: Q04DX003 (ip), vehicle: gum acacia): 111 % of control
- T/C (dose: 50.0 mg/kg/injection, schedule: Q01DX001 (ip), vehicle: Klucel (hydroxypropylcellulose) (HPC)): 104 % of control
- T/C (dose: 50.0 mg/kg/injection, schedule: Q01DX009 (ip), vehicle: gum acacia): 120 % of control
- T/C (dose: 50.0 mg/kg/injection, schedule: Q01DX009 (ip), vehicle: saline with Tween-80): 91 % of control
- T/C (dose: 50.0 mg/kg/injection, schedule: Q04DX003 (ip), vehicle: gum acacia): 100 % of control
- T/C (dose: 66.0 mg/kg/injection, schedule: Q01DX009 (ip), vehicle: gum acacia): 107 % of control
- T/C (dose: 66.0 mg/kg/injection, schedule: Q01DX009 (ip), vehicle: saline with Tween-80): 120 % of control
- T/C (dose: 75.0 mg/kg/injection, schedule: Q01DX009 (ip), vehicle: Klucel (hydroxypropylcellulose) (HPC)): 115 % of control
- T/C (dose: 100.0 mg/kg/injection, schedule: Q01DX001 (ip), vehicle: Klucel (hydroxypropylcellulose) (HPC)): 113 % of control
- T/C (dose: 100.0 mg/kg/injection, schedule: Q04DX003 (ip), vehicle: gum acacia): 107 % of control and 111 % of control
- T/C (dose: 115.0 mg/kg/injection, schedule: Q01DX009 (ip), vehicle: Klucel (hydroxypropylcellulose) (HPC)): 120 % of control
- T/C (dose: 150.0 mg/kg/injection, schedule: Q01DX009 (ip), vehicle: gum acacia): 100 % of control
- T/C (dose: 200.0 mg/kg/injection, schedule: Q01DX001 (ip), vehicle: Klucel (hydroxypropylcellulose) (HPC)): 86 % of control

SMILES: COc1cccc2c1C(=O)c1c(O)c3c(c(O)c1C2=O)C[C@@](O)(/C(C)=N/NC(=O)c1ccc(-c2ccccc2)cc1)C[C@@H]3OC1CC(N)C(O)C(C)O1 (some centres not stated)
- T/C (dose: 0.78 mg/kg/injection, schedule: Q01DX009 (ip), vehicle: water): 107 % of control
- T/C (dose: 1.56 mg/kg/injection, schedule: Q01DX009 (ip), vehicle: water): 122 % of control
- T/C (dose: 3.12 mg/kg/injection, schedule: Q01DX009 (ip), vehicle: water): 224 % of control
- T/C (dose: 6.25 mg/kg/injection, schedule: Q01DX009 (ip), vehicle: water): 157 % of control
- T/C (dose: 12.5 mg/kg/injection, schedule: Q01DX009 (ip), vehicle: water): 169 % of control

SMILES: O=C(O)C1CC2CCC1C2 (configuration not stated)
- T/C (dose: 100.0 mg/kg/injection, schedule: Q01DX001 (ip), vehicle: saline with Tween-80): 100 % of control
- T/C (dose: 200.0 mg/kg/injection, schedule: Q01DX001 (ip), vehicle: saline with Tween-80): 95 % of control
- T/C (dose: 400.0 mg/kg/injection, schedule: Q01DX001 (ip), vehicle: saline with Tween-80): 100 % of control

SMILES: CCOC(=O)CCC(NC(=O)c1ccc2c(c1)CCCN2C=O)C(=O)OCC (configuration not stated)
- T/C (dose: 25.0 mg/kg/injection, schedule: Q01DX001 (ip), vehicle: saline sonified): 100 % of control
- T/C (dose: 50.0 mg/kg/injection, schedule: Q01DX001 (ip), vehicle: saline sonified): 100 % of control
- T/C (dose: 100.0 mg/kg/injection, schedule: Q01DX001 (ip), vehicle: saline sonified): 100 % of control
